From patent US11725010B2, “Polyheterocyclic compounds as METTL3 inhibitors” (Storm Therapeutics Limited, priority 2019, dated 2023)
Like-named read-outs stand apart in the source and are kept apart here.

Experiments:
Caov-3 cells = assay: Caov3 CTG proliferation assay; type: cell-based; details: Homo sapiens
Method: CTG Assay (Caov3 Cell Line)
Upon treatment, Coav-3 cells were incubated for 10 min at RT with the CellTiter-Glo reagent (G7571, Promega). Measurement of the luminescence signal was performed on a microplate reader (Ensight, PerkinElmer).
Caov3 CTG Assay—Proliferation Assay

METTL3/14 = METTL3/14 (Homo sapiens (Human), UniProt Q86U44)
KASUMI-1 cells = assay: Kasumi cell assay (CellTiter-Glo cell growth); type: cell-based; details: Homo sapiens
Method: Upon treatment, Kasumil cells were incubated for 10 min at RT with the CellTiter-Glo reagent (G7571, Promega). Measurement of the luminescence signal was performed on a microplate reader (Ensight, PerkinElmer).

[1] = Caov-3, treated for 120 hours, CellTiter-Glo luminescence, read-out: Caov3 cells IC50
[2] = Caov-3, 120 h, read-out: Caov3 cells IC50 nM
[3] = Kasumi 1, treated for 120 hours, CellTiter-Glo luminescence, read-out: KASUMI1 cells IC50

Sequence of METTL3/14 (Q86U44 whole entry): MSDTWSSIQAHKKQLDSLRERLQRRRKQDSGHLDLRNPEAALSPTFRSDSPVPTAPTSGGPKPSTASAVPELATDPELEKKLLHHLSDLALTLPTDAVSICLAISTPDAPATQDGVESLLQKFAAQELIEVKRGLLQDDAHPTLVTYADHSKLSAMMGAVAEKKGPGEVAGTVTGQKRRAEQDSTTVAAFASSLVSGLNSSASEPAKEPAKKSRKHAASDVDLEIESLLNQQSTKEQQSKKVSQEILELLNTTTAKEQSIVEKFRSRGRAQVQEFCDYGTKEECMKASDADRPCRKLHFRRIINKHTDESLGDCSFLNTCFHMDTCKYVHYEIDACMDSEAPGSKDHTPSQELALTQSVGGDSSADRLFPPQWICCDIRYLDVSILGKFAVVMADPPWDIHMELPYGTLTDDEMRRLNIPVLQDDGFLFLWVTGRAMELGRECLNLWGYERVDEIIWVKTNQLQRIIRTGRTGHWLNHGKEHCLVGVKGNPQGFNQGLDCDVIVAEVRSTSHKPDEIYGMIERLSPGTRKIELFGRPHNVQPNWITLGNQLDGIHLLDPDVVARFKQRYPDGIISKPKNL
Sequence of METTL3/14 (Q9HCE5 whole entry partner): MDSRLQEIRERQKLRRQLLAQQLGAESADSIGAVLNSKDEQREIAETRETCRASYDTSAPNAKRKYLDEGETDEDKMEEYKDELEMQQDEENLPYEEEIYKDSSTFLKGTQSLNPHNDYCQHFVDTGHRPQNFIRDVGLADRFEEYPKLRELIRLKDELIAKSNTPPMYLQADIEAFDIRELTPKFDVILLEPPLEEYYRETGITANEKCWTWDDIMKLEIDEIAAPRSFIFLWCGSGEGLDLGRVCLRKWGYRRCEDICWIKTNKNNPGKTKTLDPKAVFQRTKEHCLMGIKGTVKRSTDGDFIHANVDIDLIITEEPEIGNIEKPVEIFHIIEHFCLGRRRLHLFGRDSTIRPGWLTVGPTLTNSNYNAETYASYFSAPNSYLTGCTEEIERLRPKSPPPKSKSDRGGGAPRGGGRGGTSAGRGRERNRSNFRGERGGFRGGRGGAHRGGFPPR

Row | SMILES | IC50 (Caov-3 cells; [1]) [nM] | IC50 (METTL3/14) [nM] | other results
1 | O=C(NCc1ccc2cc(CN3CC4CCC3CC4)[nH]c2c1)c1cc(=O)n2ccccc2n1 [Compound 21, N-[[2-(2-azabicyclo[2.2.2]octan-2-ylmethyl)-1H-indol-6-yl]methyl]-4-oxo-pyrido[1,2-a]pyrimidine-2-carboxamide] | 746 |  | 
2 | O=C(NCc1ccc2cc(CNCC3CCCC3)[nH]c2c1)c1cc(=O)n2ccccc2n1 [Compound 27, N-[[2-[(cyclopentylmethylamino)methyl]-1H-indol-6-yl]methyl]-4-oxo-pyrido[1,2-a]pyrimidine-2-carboxamide] | 420 | 6.1 | 
3 | O=C(NCc1ccc2cc(CNCC3(O)CCCC3)[nH]c2c1)c1cc(=O)n2ccccc2n1 [Compound 15, N-[[2-[[(1-hydroxycyclopentyl)methylamino]methyl]-1H-indol-6-yl]methyl]-4-oxo-pyrido[1,2-a]pyrimidine-2-carboxamide] | 658 | 6.1 | 
4 | O=c1cc(-c2cn(Cc3ccc4cc(CNCC5CCC5)[nH]c4c3)nn2)nc2ccccn12 [Example 62, 2-[1-[[2-[(cyclobutylmethylamino)methyl]-1H-indol-6-yl]methyl]triazol-4-yl]pyrido[1,2-a]pyrimidin-4-one] | 696 | 6.1 | 
5 | c1cc2cc(-c3cn(Cc4ccc5cc(CNCC6CCC6)[nH]c5c4)cn3)cnc2[nH]1 [Example 134, (cyclobutylmethyl)({6-[(4-{1H-pyrrolo[2,3-b]pyridin-5-yl}-1H-imidazol-1-yl)methyl]-1H-indol-2-yl}methyl)amine] |  | 6.1 | 
6 | O=C(NCc1ccc2cc(CNCC3(O)CCCCC3)[nH]c2c1)c1cc(=O)n2ccccc2n1 [Compound 25, N-[[2-[[(1-hydroxycyclohexyl)methylamino]methyl]-1H-indol-6-yl]methyl]-4-oxo-pyrido[1,2-a]pyrimidine-2-carboxamide] | 732 |  | 
7 | CC(C)(C)CNCc1cc2ccc(CNC(=O)c3cc(=O)n4ccccc4n3)cc2[nH]1 [Compound 34, N-[[2-[(2,2-dimethylpropylamino)methyl]-1H-indol-6-yl]methyl]-4-oxo-pyrido[1,2-a]pyrimidine-2-carboxamide] | 988 | 6.1 | 
8 | CC1(CNCc2cc3ccc(CNC(=O)c4cc(=O)n5ccccc5n4)cc3[nH]2)CC1 [Example 6, N-[[2-[[(1-methylcyclopropyl)methylamino]methyl]-1H-indol-6-yl]methyl]-4-oxo-pyrido[1,2-a]pyrimidine-2-carboxamide] | 756 | 6.1 | 
9 | O=C(NCc1ccc2cc(CN[C@H]3CCC[C@@H]3O)[nH]c2c1)c1cc(=O)n2ccccc2n1 [Compound 36, N-{[2-({[(1S,2S)-2-hydroxycyclopentyl]amino}methyl)-1H-indol-6-yl]methyl}-4-oxo-4H-pyrido[1,2-a]pyrimidine-2-carboxamide] |  | 6.1 | IC50 (Caov-3 cells; [2]): 973 nM
10 | O=C(NCc1ccc2cc(CNC34CC5CC(CC(C5)C3)C4)[nH]c2c1)c1cc(=O)n2ccccc2n1 [Compound 11, N-[[2-[(1-adamantylamino)methyl]-1H-indol-6-yl]methyl]-4-oxo-pyrido[1,2-a]pyrimidine-2-carboxamide] | 607 | 6.1 | 
11 | O=C(NCc1ccc2cc(CNC3CCCC3)[nH]c2c1)c1cc(=O)n2ccccc2n1 [Compound 26, N-[[2-[(cyclopentylamino)methyl]-1H-indol-6-yl]methyl]-4-oxo-pyrido[1,2-a]pyrimidine-2-carboxamide] | 274 | 6.1 | 
12 | COc1cnc(C#N)c(-c2cn(Cc3ccc4cc(CNCC56CC(C5)C6)[nH]c4c3)nn2)c1 [Example 148, 3-[1-({2-[({(Bicyclo [1.1.1]pent-1-yl)methyl}amino)methyl]-1H-indol-6-yl}methyl)-1H-1,2,3-triazol-4-yl]-5-methoxy-2-pyridine-carbonitrile] |  | < 6.1 | 
13 | c1cc(-c2nsc(Cc3ccc4cc(CNCC5CCC5)[nH]c4c3)n2)c2cn[nH]c2c1 [Example 65] |  | 16100 | 
14 | c1cc(-c2cn(Cc3ccc4cc(CNCC5CCC5)[nH]c4c3)nn2)c2cncn2c1 [Example 135, (cyclobutylmethyl)({6-[(4-{imidazo[1,5-a]pyridin-8-yl}-1H-1,2,3-triazol-1-yl)methyl]-1H-indol-2-yl}methyl)amine] | 269 |  | 
15 | O=C(NCc1cnc2cc(CNCC3CCC3)[nH]c2c1)c1cc(=O)n2ccccc2n1 [Example 49, N-[[2-[(cyclobutylmethylamino)methyl]-1H-pyrrolo[3,2-b]pyridin-6-yl]methyl]-4-oxo-pyrido[1,2-a]pyrimidine-2-carboxamide] |  |  | IC50 (Caov-3 cells; [2]): 1060 nM
16 | c1cc(-c2cn(Cc3cnc4cc(CNCC5CCC5)[nH]c4c3)nn2)c2cn[nH]c2c1 [Example 59, N-(cyclobutylmethyl)-1-[6-[[4-(1H-indazol-4-yl)triazol-1-yl]methyl]-1H-pyrrolo[3,2-b]pyridin-2-yl]methanamine] | 524 | 6.1 | 

Row | SMILES | IC50 (Caov-3 cells; [1]) [nM] | IC50 (METTL3/14) [nM] | other results
17 | OC1(CNCc2cc3ccc(Cn4cc(-c5cccc6[nH]ncc56)nn4)cc3[nH]2)CCC1 [Compound 57, 1-[[[6-[[4-(1H-indazol-4-yl)triazol-1-yl]methyl]-1H-indol-2-yl]methylamino]methyl]cyclobutanol] | 1060 | 6.1 | 
18 | CC1(C)CN(Cc2cc3ccc(CNC(=O)c4cc(=O)n5ccccc5n4)cc3[nH]2)C1 [Compound 83, N-({2-[(3,3-dimethylazetidin-1-yl)methyl]-1H-indol-6-yl}methyl)-4-oxo-4H-pyrido[1,2-a]pyrimidine-2-carboxamide] |  |  | IC50 (KASUMI-1 cells; [3]): 3680 nM
19 | O[C@@H]1CCC[C@@H]1NCc1cc2ccc(Cn3cc(-c4cccc5[nH]ncc45)nn3)cc2[nH]1 [Compound 54, (1R,2S)-2-[[6-[[4-(1H-indazol-4-yl)triazol-1-yl]methyl]-1H-indol-2-yl]methylamino]cyclopentanol] | 837 |  | 
20 | O=C(NCc1ccc2cc(CNCC3CC(F)(F)C3)[nH]c2c1)c1cc(=O)n2ccccc2n1 [Compound 3, N-[[2-[[(3,3-difluorocyclobutyl)methylamino]methyl]-1H-indol-6-yl]methyl]-4-oxo-pyrido[1,2-a]pyrimidine-2-carboxamide] |  | 6.1 | 
21 | N#CC12CC(CNCc3cc4ccc(CNC(=O)c5cc(=O)n6ccccc6n5)cc4[nH]3)(C1)C2 [Compound 111, N-[(2-{[({3-cyanobicyclo[1.1.1]pentan-1-yl}methyl)amino]methyl}-1H-indol-6-yl)methyl]-4-oxo-4H-pyrido[1,2-a]pyrimidine-2-carboxamide] |  |  | IC50 (KASUMI-1 cells; [3]): 2290 nM
22 | c1cc(-c2cn(Cc3ccc4cc(CNCC5CCC5)[nH]c4c3)cn2)c2cn[nH]c2c1 [Example 64, N-(cyclobutylmethyl)-1-[6-[[4-(1H-indazol-4-yl)imidazol-1-yl]methyl]-1H-indol-2-yl]methanamine] | 922 |  | 
23 | O=C(NCc1ccc2cc(CNCC3(O)CCC3)[nH]c2c1)c1cc(=O)n2ccccc2n1 [Compound 4, N-[[2-[[(1-hydroxycyclobutyl)methylamino]methyl]-1H-indol-6-yl]methyl]-4-oxo-pyrido[1,2-a]pyrimidine-2-carboxamide] |  | 6.1 | 
24 | CC1(C)CCN(Cc2cc3ccc(CNC(=O)c4cc(=O)n5ccccc5n4)cc3[nH]2)CC1 [Example 1, N-({2-[(4,4-dimethylpiperidin-1-yl)methyl]-1H-indol-6-yl}methyl)-4-oxo-4H-pyrido[1,2-a]pyrimidine-2-carboxamide] | 260 |  | 
25 | CN(Cc1cc2ccc(CNC(=O)c3cc(=O)n4ccccc4n3)cc2[nH]1)CC1CCC1 [Example 70, N-[[2-[[cyclobutylmethyl(methyl)amino]methyl]-1H-indol-6-yl]methyl]-4-oxo-pyrido[1,2-a]pyrimidine-2-carboxamide] |  |  | IC50 (KASUMI-1 cells; Kasumi 1, 120 h, read-out: KASUMI1 cells IC50 nM): 4900 nM
26 | O=C(NCc1ccc2cc(CNCC3CCC3)[nH]c2c1)c1cnc2[nH]ccc2c1 [Example 137, N-[(2-{[(cyclobutylmethyl)amino]methyl}-1H-indol-6-yl)methyl]-1H-pyrrolo[2,3-b]pyridine-5-carboxamide] | 1080 | 6.1 | 
27 | c1cc2cc(-c3cn(Cc4ccc5cc(CNCC6CCC6)[nH]c5c4)nn3)cnc2[nH]1 [Example 138, (cyclobutylmethyl)({6-[(4-{1H-pyrrolo[2,3-b]pyridin-5-yl}-1H-1,2,3-triazol-1-yl)methyl]-1H-indol-2-yl}methyl)amine] |  | 6.1 | 
28 | c1cc(-c2cn(Cc3ccc4cc(CNC5CCCC5)[nH]c4c3)nn2)c2cn[nH]c2c1 [Compound 55, N-[[6-[[4-(1H-indazol-4-yl)triazol-1-yl]methyl]-1H-indol-2-yl]methyl]cyclopentanamine] | 764 | 6.1 | 
29 | O=C(NCc1ccc2cc(CNC3CCCCC3)[nH]c2c1)c1cc(=O)n2ccccc2n1 [Compound 30, N-[[2-[(cyclohexylamino)methyl]-1H-indol-6-yl]methyl]-4-oxo-pyrido[1,2-a]pyrimidine-2-carboxamide] |  | 6.1 | 
30 | O=C(NCc1cnc2cc(CNCC34CC(F)(C3)C4)[nH]c2c1)c1cc(=O)n2ccccc2n1 [Compound 127, N-[(2-{[({3-fluorobicyclo[1.1.1]pentan-1-yl}methyl)amino]methyl}-1H-pyrrolo[3,2-b]pyridin-6-yl)methyl]-4-oxo-4H-pyrido[1,2-a]pyrimidine-2-carboxamide] | 624 | 6.1 | 
31 | c1cc(-c2cn(Cc3ccc4cc(CNCC5CCC5)[nH]c4c3)nn2)c2cn[nH]c2c1 [Example 58, N-(cyclobutylmethyl)-1-[6-[[4-(1H-indazol-4-yl)triazol-1-yl]methyl]-1H-indol-2-yl]methanamine] | 702 | 6.1 | 
